These results are taken from article PMC11434354, “Metabolic and Pharmacokinetic Profiling Studies of N, N-Dimethylaniline-Heliamine in Rats by UHPLC-Q-Orbitrap MS/MS” (Molecules, 2024).

Like-named read-outs stand apart in the source and are kept apart here.

On the set-up of data set [1]: method as in doi:10.37547/TAJMSPR/Volume02Issue07-17. Particulars: rats, compared with verapamil; cited from earlier work.
Data set [2] has as its system Sarcoplasmic reticulum RyR2Ca^2+ channels. Also noted: method as in doi:10.13005/bpj/1892. The settings on record: cited from earlier work.
Data set [3] is described as follows: Pharmacokinetic study of DH in rats after oral and intravenous administration (non-compartmental analysis). The format is in vivo, male Sprague–Dawley (SD) rats. Particulars: for MRT last: read-out: MRT0–t; for MRT inf: read-out: MRT0–∞; for half-life: read-out: T1/2 (terminal half-life) (converted). How it is done:
The Xinjiang Medical University (Xinjiang, China) provided twelve male Sprague–Dawley (SD) rats (weight 200 ± 20 g). The Animal Experimentation Ethics Committee of Xinjiang Medical University gave its approval to all animal experiments. DH was created using a mixture consisting of 2% ethanol, 8% Kolliphor, and 90% distilled water. Twelve rats were selected randomly and divided into two groups. Before administering the oral dose, the rats were fasted for 12 h but were allowed access to water. Each rat in the oral group was orally given 19.2 mg/kg of DH. Blood samples were collected from their ophthalmic veins at 0, 0.25, 0.5, 1, 1.5, 2, 4, 8, 12, and 24 h for the oral study. In the intravenous group, each rat was given an intravenous tail injection of 1.9 mg/kg of DH. Blood was collected from their ocular veins at 0, 0.1, 0.25, 0.5, 0.75, 1, 1.5, 3.4, 7.5, 12, and 24 h for further analysis. The collected plasma was thereafter subjected to centrifugation (14,000 rpm) for 10 min in a 1.5 mL polyethylene collection tube with EDTA. Following centrifugation, the supernatant was stored in a refrigerator at –80 °C.
Rat plasma samples were assessed for DH using a Thermo Fisher Scientific Q Exactive Plus Orbitrap MS and a Dionnex Ultimate 3000 RSL nano System (Thermo Fisher Scientific, Bremen, Germany). Chromatographic separation was performed with a pre-column (1.7 µm) and an ACQUITY UHPLC BEH C18 column (2.1 × 75 mm, 1.7 µm). The procedure utilized a 10 µL injection volume and was carried out for 5 min at 0.2 mL/min isocratic (70%A (0.1% formic acid in water): 30%B (acetonitrile)). The temperature of the RS autosampler was maintained at 10 °C, and the column was set at 35 °C. Positive electrospray ionization (ESI) and the Parallel Reaction Monitor (PRM) mode were employed to identify DH and the IS. AGC targets were set at 1 × 10^6, the maximum iteration time at 100 ms, the spray voltage at 3.2 kV, the capillary temperature at 320 °C, the S-lens RF level at 55, and 10 and 38 for the IS of the high collision dissociation cell of DH were the MS parameters used. The PRM transitions for DH and IS were 313.19/192.10 (m/z) and 400.18/310.12 (m/z), respectively.
Dissolve PK samples were stored at −80 °C at room temperature. We added 10 µL of 30% acetonitrile water and vortexed it for 3 s. We then added 10 µL of IS and vortexed it for 3 s. Then, 300 µL of acetonitrile was added to the above plasma, vortexed for 1 min, and centrifuged for 7 min. The mixture supernatant was collected and blown dry at 40 °C under nitrogen. Blow-dried samples were re-dissolved in 100 μL of 30% acetonitrile in water and centrifuged for 7 min.
Twelve male SD rats, weighing […], were used to perform PK studies on DH. SD rats fasted for 12 h before administration, but the water was freely available. Normal drinking and eating resumed four hours after administration. To study the bioavailability and PK parameters of DH, rats were randomly divided into two groups. The dose administered was 1.9 mg/kg for the intravenous group and 19.2 mg/kg for the oral administration group. Oral bioavailability was calculated using Equation (2) as follows:Oral bioavailability (%) = (AUCp.o. × Dosei.v./AUCi.v. × Dosep. o.) × 100%(2)
The Q Exactive Plus Orbitrap MS data were acquired using the Thermo Xcalibur 4.2. software (Thermo Fisher Scientific, Waltham, MA, USA). The Qual Browser was used to extract ion chromatograms for screening candidate metabolites with a mass tolerance of 5 ppm and a mass precision of 4 decimals. In addition, MS/MS fragment ions were extracted for structural confirmation of candidate metabolites. The Qual Browser was used for the quantification of DH in rat plasma. Pharmacokinetic parameters were processed using the non-compartmental pharmacokinetic data analysis software program of MaS Studio 1.5.2.14 stable (Shanghai Boca Pharmaceutical Technology Co., Shanghai, China). Finally, the results were described as arithmetic mean ± SD.

On the set-up of data set [4]: method as in doi:10.37547/TAJMSPR/Volume02Issue07-17. The settings on record: cited from earlier work.
Setting [5] is: I.V. 1.9 mg/kg, n = 6, mean ± SD.
[6] abbreviates: P.O. 19.2 mg/kg, n = 6, mean ± SD.
Setting [7] is: male, Sprague-Dawley, rat, plasma, iv, I.V. 1.9 mg/kg, n = 6, mean ± SD.
Where [8] appears, read: male, Sprague-Dawley, rat, plasma, po, P.O. 19.2 mg/kg, n = 6, mean ± SD.

What is called Cmax is the maximum level reached in the sampled fluid or tissue. Broadly, the bioavailability is the share of a dose that reaches the circulation, judged against a reference dose that is usually intravenous. In general, Tmax refers to the time at which the peak concentration occurs.

As for `COc1cc2c(cc1OC)C(c1ccc(N(C)C)cc1)NCC2` (stereo not shown) [DH, N, N-dimethylaniline-heliamine], in data set [1], the Acute toxicity parameters entry is recorded as “more than six times lower than those of verapamil”. The “inhibition of sarcoplasmic reticulum RyR2 Ca2+ channels” value in data set [2] is recorded as “inhibited”. In data set [3] (setting [5]), the AUC0–t was found to be 439 ± 30.1 ng·h/mL and the AUC0–∞ was determined as 495 ± 36.4 ng·h/mL. For the same compound, the “Vd (apparent volume of distribution)” value in data set [3] (I.V. 1.9 mg/kg, n = 6, mean ± SD, 1.9 mg/kg) is on record as 15,514.58 ± 2159.74 mL/kg. In data set [3] (setting [6]), the AUC0–t was 707 ± 265 ng·h/mL, the AUC0–∞ was determined as 748 ± 279 ng·h/mL, the “CL (clearance)” value was 30,148.65 ± 15,354.27 mL/h/kg and the “Vd (apparent volume of distribution)” value is reported as 126,728.09 ± 56,867.09 mL/kg. Further, the Vd in data set [3] (male, Sprague-Dawley, rat, plasma, iv, 1.9 mg/kg, I.V. 1.9 mg/kg, n = 6, mean ± SD, read-out: Vd (apparent volume of distribution)) turned out to be 15.1 L/kg. Further, in data set [3] (setting [7]), the peak level (Cmax) was 183 ± 33.6 ng/mL, the MRT last came out at 2.49 ± 0.33 h, the MRT inf was 3.56 ± 0.26 h and the half-life is 2.79 ± 0.34 h. Also, the clearance in data set [3] (male, Sprague-Dawley, rat, plasma, iv, I.V. 1.9 mg/kg, n = 6, mean ± SD, read-out: CL (clearance) (converted)) is 64.3 mL/min/kg. Besides, in data set [3] (male, Sprague-Dawley, rat, plasma, oral, P.O. 19.2 mg/kg vs I.V. 1.9 mg/kg, read-out: Fabs (absolute oral bioavailability)), the bioavailability worked out at 16.1%. In data set [3] (setting [8]), the Cmax came to 121 ± 42.4 ng/mL, the Tmax stood at 1.5 h, the MRT last was determined as 4.07 ± 0.34 h and the MRT inf came out at 4.76 ± 0.4 h. Moreover, the half-life in data set [3] (setting [8]) was 2.96 ± 0.32 h. Besides, the antiarrhythmic activity result in data set [4] was “promising antiarrhythmic activity”.
